In the assay the test system is BDF1 mice, B16 melanoma ip, median survival T/C. Description: NCI In Vivo Anticancer Drug Screen. Data for tumor model B16 Melanoma (intraperitoneal) in B6D2F1 (BDF1) mice. To be noted: endpoint: median survival time, higher = longer survival. The method in brief: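 The ratio T/C compares compound-treated mice with vehicle-treated controls, using survival or tumor size as the endpoint in a transplantable tumor model.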

[1] abbreviates: dose: 12.5 mg/kg/injection, schedule: Q01DX009 (ip), vehicle: saline.
The mark [2] stands for this setting: dose: 100.0 mg/kg/injection, schedule: Q01DX009 (ip), vehicle: Klucel (hydroxypropylcellulose) (HPC).
Where [3] appears, read: dose: 200.0 mg/kg/injection, schedule: Q01DX009 (ip), vehicle: Klucel (hydroxypropylcellulose) (HPC).
The mark [4] stands for this setting: dose: 400.0 mg/kg/injection, schedule: Q01DX009 (ip), vehicle: Klucel (hydroxypropylcellulose) (HPC).
The mark [5] stands for this setting: dose: 25.0 mg/kg/injection, schedule: Q01DX009 (ip), vehicle: saline.
The mark [6] stands for this setting: dose: 6.25 mg/kg/injection, schedule: Q01DX009 (ip), vehicle: water.
The mark [7] stands for this setting: dose: 12.5 mg/kg/injection, schedule: Q01DX009 (ip), vehicle: water.
Where [8] appears, read: dose: 25.0 mg/kg/injection, schedule: Q01DX009 (ip), vehicle: water.
Setting [9] is: dose: 25.0 mg/kg/injection, schedule: Q01DX009 (ip), vehicle: Klucel (hydroxypropylcellulose) (HPC).
Setting [10] is: dose: 50.0 mg/kg/injection, schedule: Q01DX009 (ip), vehicle: saline.
Setting [11] is: dose: 100.0 mg/kg/injection, schedule: Q01DX009 (ip), vehicle: saline.
[12] abbreviates: dose: 200.0 mg/kg/injection, schedule: Q01DX009 (ip), vehicle: saline.
[13] abbreviates: dose: 50.0 mg/kg/injection, schedule: Q01DX009 (ip), vehicle: saline with Tween-80.
Setting [14] is: dose: 100.0 mg/kg/injection, schedule: Q01DX009 (ip), vehicle: saline with Tween-80.
[15] abbreviates: dose: 200.0 mg/kg/injection, schedule: Q01DX009 (ip), vehicle: saline with Tween-80.

Where “and” joins values, the source holds several entries; their conditions need not be identical. Identical values can stand only once. Inconclusive results and toxic doses are left out. Peptide text beside a SMILES is read from it.

On to `CC1CCCC(C)N1C1=NCCO1` (centres undefined), for which the T/C by setting is: (dose: 5.0 mg/kg/injection, schedule: Q01DX009 (ip), vehicle: saline with Tween-80) 100 % of control; (dose: 5.0 mg/kg/injection, schedule: Q04DX003 (ip), vehicle: saline with Tween-80) 100 % of control; (dose: 10.0 mg/kg/injection, schedule: Q01DX009 (ip), vehicle: saline with Tween-80) 112 % of control; (dose: 10.0 mg/kg/injection, schedule: Q04DX003 (ip), vehicle: saline with Tween-80) 97 % of control; (dose: 20.0 mg/kg/injection, schedule: Q01DX009 (ip), vehicle: saline with Tween-80) 92 % of control; (dose: 20.0 mg/kg/injection, schedule: Q04DX003 (ip), vehicle: saline with Tween-80) 100 % of control.
In the case of `c1ccc(-c2nc(N3CCOCC3)nc3ccccc23)cc1`, the T/C runs as follows: (dose: 100.0 mg/kg/injection, schedule: Q04DX003 (ip), vehicle: saline with Tween-80) 104 % of control; (dose: 200.0 mg/kg/injection, schedule: Q04DX003 (ip), vehicle: saline with Tween-80) 88 % of control.
As to `CCc1ccc2c(c1)N(CC(C)CN(C)C)c1ccccc1S2` (centres undefined), the T/C by setting is: (dose: 0.78 mg/kg/injection, schedule: Q01DX009 (ip), vehicle: saline) 105 % of control; (dose: 1.56 mg/kg/injection, schedule: Q01DX009 (ip), vehicle: saline) 87 % of control and 111 % of control; (dose: 3.12 mg/kg/injection, schedule: Q01DX009 (ip), vehicle: saline) 98 % of control and 108 % of control.
Turning to `O=c1[nH]c2ccccc2c2cc3ccccc3cc12`, the T/C was 94 % of control (dose: 6.25 mg/kg/injection, schedule: Q01DX009 (ip), vehicle: saline) and 86 % of control under setting [1].
For `Clc1ccccc1C=Nc1ccc2c(c1)Cc1ccccc1-2`, the T/C is 96 % of control under setting [2], 96 % of control under setting [3] and 87 % of control under setting [4].
On to `Cc1ccc(C(=O)NCCCOc2ccc(N3C(N)=NC(N)=NC3(C)C)cc2Cl)cc1S(=O)(=O)F`, for which the T/C under setting [1] was 96 % of control and the T/C under setting [5] is 91 % of control.
Regarding `CCCCCCCCCCCCCCCC[N+](C)(C)c1nc(Cl)nc(Cl)n1`, the T/C is 97 % of control (dose: 2.0 mg/kg/injection, schedule: Q01DX009 (ip), vehicle: saline with Tween-80); 100 % of control (dose: 4.0 mg/kg/injection, schedule: Q01DX009 (ip), vehicle: saline with Tween-80); 95 % of control (dose: 8.0 mg/kg/injection, schedule: Q01DX009 (ip), vehicle: saline with Tween-80).
In the case of `Cn1cnc([N+](=O)[O-])c1[Se]c1nc(N)nc2nc[nH]c12`, the T/C (dose: 3.12 mg/kg/injection, schedule: Q01DX009 (ip), vehicle: water) was 109 % of control; the T/C under setting [6] was 117 % of control; the T/C (dose: 11.0 mg/kg/injection, schedule: Q01DX009 (ip), vehicle: other) was 116 % of control; the T/C under setting [7] was 150 % of control; the T/C (dose: 16.5 mg/kg/injection, schedule: Q01DX009 (ip), vehicle: other) was 117 % of control; the T/C under setting [8] is 153 % of control and 158 % of control.
As to `Cc1cc(N(CCOS(C)(=O)=O)CCOS(C)(=O)=O)ccc1C=Nc1ccc(-c2nc(Cc3ccccc3)sc2C)cc1`, the T/C under setting [9] was 165 % of control; the T/C (dose: 50.0 mg/kg/injection, schedule: Q01DX009 (ip), vehicle: Klucel (hydroxypropylcellulose) (HPC)) is 174 % of control; the T/C under setting [2] was 107 % of control.
Regarding `C(=Nc1ccc2c(c1)Cc1ccccc1-2)c1ccnc2ccccc12`, the T/C was 103 % of control under setting [2], 100 % of control under setting [3] and 93 % of control under setting [4].
Take `CC1CN1P(=O)(OCCC#N)N1CC1C` (centres undefined): the T/C was 121 % of control under setting [10], 115 % of control under setting [11] and 120 % of control under setting [12].
For `COC(=O)/C(C)=C/C=C/C(OC)C(OC(N)=O)/C(C)=C/C(C)C(O)C(CC(C)CC1=C(N)C(=O)C=C(N)C1=O)OC` (centres undefined), the T/C (dose: 12.5 mg/kg/injection, schedule: Q01DX005 (ip), vehicle: other) is 94 % of control; the T/C (dose: 25.0 mg/kg/injection, schedule: Q01DX005 (ip), vehicle: other) was 95 % of control; the T/C (dose: 50.0 mg/kg/injection, schedule: Q01DX005 (ip), vehicle: other) was 108 % of control; the T/C (dose: 100.0 mg/kg/injection, schedule: Q01DX005 (ip), vehicle: other) was 93 % of control.
As to `CCCCCCC(O)CCCC` (centres undefined), the T/C by setting is: (dose: 100.0 mg/kg/injection, schedule: Q01DX009 (ip), vehicle: other) 103 % of control; (dose: 200.0 mg/kg/injection, schedule: Q01DX009 (ip), vehicle: other) 90 % of control.
`CSCCC(N)C(=O)NC(CC(N)=O)C(=O)O` (stereo not drawn) (H-Met-Asn-OH; configuration not given here): the T/C was 103 % of control under setting [5], 108 % of control under setting [10], 96 % of control under setting [11] and 89 % of control under setting [12].
`Cc1ccc(NC(=O)N(CCCl)N=O)cc1C`: the T/C by setting is: (dose: 3.12 mg/kg/injection, schedule: Q01DX009 (ip), vehicle: Klucel (hydroxypropylcellulose) (HPC)) 150 % of control; (dose: 6.25 mg/kg/injection, schedule: Q01DX009 (ip), vehicle: Klucel (hydroxypropylcellulose) (HPC)) 150 % of control.
On to `CCCCn1ccnc1C`, for which the T/C is 106 % of control under setting [6]; 91 % of control under setting [7]; 101 % of control under setting [8]; 102 % of control (dose: 50.0 mg/kg/injection, schedule: Q01DX009 (ip), vehicle: water).
On to `C=C(C)C12OC3(c4ccccc4)OC1C1C4OC4(CO)C(O)C4(O)C(=O)C(C)=CC4C1(O3)C(C)C2OC(=O)c1ccccc1` (centres undefined), for which the T/C (dose: 0.1 mg/kg/injection, schedule: Q01DX009 (ip), vehicle: saline with Tween-80) is 99 % of control; the T/C (dose: 0.2 mg/kg/injection, schedule: Q01DX009 (ip), vehicle: saline with Tween-80) is 101 % of control; the T/C (dose: 0.4 mg/kg/injection, schedule: Q01DX009 (ip), vehicle: saline with Tween-80) is 98 % of control.
For `O=C(O)c1[nH]c(=O)[nH]c(=O)c1F`, the T/C is 92 % of control (dose: 2.0 mg/kg/injection, schedule: Q01DX009 (ip), vehicle: saline) and 95 % of control (dose: 4.0 mg/kg/injection, schedule: Q01DX009 (ip), vehicle: saline).
As to `COc1cc(C=Nc2ccc(-c3nc(Cc4ccccc4)sc3C)cc2)ccc1N(CCCl)CCCl`, the T/C (dose: 12.5 mg/kg/injection, schedule: Q01DX009 (ip), vehicle: Klucel (hydroxypropylcellulose) (HPC)) was 175 % of control and 186 % of control; the T/C under setting [9] was 191 % of control.
On to `O=C(O)C1OC1C(=O)O` (centres undefined), for which the T/C by setting is: (dose: 75.0 mg/kg/injection, schedule: Q01DX009 (ip), vehicle: saline) 120 % of control; (dose: 300.0 mg/kg/injection, schedule: Q01DX009 (ip), vehicle: saline) 118 % of control.
Consider `CC(C)(C)OC(=O)NC(N)=NCCCC(NC(=O)OC(C)(C)C)C(=O)O` (centres undefined), for which the T/C under setting [13] is 101 % of control, the T/C under setting [14] was 88 % of control and the T/C under setting [15] is 87 % of control.
Take `Cc1cc(C(=O)NNC(C)Cc2ccccc2)no1` (centres undefined): the T/C is 95 % of control (dose: 4.6 mg/kg/injection, schedule: Q01DX009 (ip), vehicle: saline); 100 % of control (dose: 9.3 mg/kg/injection, schedule: Q01DX009 (ip), vehicle: saline); 102 % of control (dose: 18.75 mg/kg/injection, schedule: Q01DX009 (ip), vehicle: saline); 120 % of control (dose: 37.5 mg/kg/injection, schedule: Q01DX009 (ip), vehicle: saline).
For `O=C(O)c1ccc(S(=O)(=O)N(Cl)Cl)cc1`, the T/C is 110 % of control under setting [11]; 113 % of control under setting [12]; 104 % of control (dose: 400.0 mg/kg/injection, schedule: Q01DX009 (ip), vehicle: saline).
`NCC(=O)NCC(=O)NC(Cc1ccc(O)cc1)C(=O)O` (centres undefined): the T/C is 104 % of control under setting [13]; 94 % of control under setting [14]; 102 % of control under setting [15]; 95 % of control (dose: 400.0 mg/kg/injection, schedule: Q01DX009 (ip), vehicle: saline with Tween-80).
With `CCOC(=O)c1ccc(NS(=O)c2ccccc2)cc1` (centres undefined), the T/C reads like this: under setting [13], 105 % of control; under setting [14], 91 % of control.
Take `CC1CCC2(CC1)CCN(CCCN(C)C)CC2`: the T/C is, setting by setting: under setting [10], 99 % of control; under setting [11], 110 % of control.
